From US20240109843A1, “BENZALDEHYDE COMPOUNDS WITH DIRECT POLYMER DESTABILIZING EFFECTS TO TREAT SICKLE CELL DISEASE” (VIRGINIA COMMONWEALTH UNIVERSITY, priority 2018, published 2024)
Several values for one entry are separate records, joined by “and”; a condition that tells them apart may be missing. Identical values can stand only once. Values belong to the compound of their own block, whether it stands above or below them.

Key:
[1] = test system: RBCs from donors with homozygous SCD; experiment: Oxygen-independent sickle inhibition in SS blood suspensions under anoxia (100% nitrogen); type: cell-based, human; conditions: anoxia
Experimental: To establish oxygen-independent sickle inhibition, the incubation chamber was subsequently opened and exposed to room air for 15 minutes to ensure complete re-oxygenation and reversal of the sickled cells to normal round cells. Reversal was confirmed by microscopy. The incubation chamber was then closed, and the assay was repeated with incubation in 100% nitrogen gas for 1 hour (for screening), or up to 2.5 h (for time-course studies), with collection and fixation of blood aliquots at defined intervals. Aliquot samples were again subjected to microscopic morphological analysis of bright field images to identify the proportion of sickled and non-sickled cells, and sickle inhibition calculated.

[2] = molecular target: T1, Hb (Homo sapiens, UniProt P69905); experiment: Drug partitioning studies, fixed and unfixed Hb adducts in non-sickling AA blood; type: cell-based; parameters: Hemoglobin modification, studies using non-sickling AA blood; from tissue; host or cells: non-sickling (AA) human blood, red blood cells; conditions: 2 mM; for Fixed Adducts (%) / Unfixed Adduct (%): 6 biological replicates; for Partitioning Ratio (%): fixed relative to unfixed adducts
Experimental: RBC partitioning studies were conducted both for SS RBCs following sickling studies above, or as separate independent studies with non-sickle blood. Briefly, aliquots of blood samples, which had been incubated with test molecules, were lysed either in deionized water (un-fixed), or in water containing 50 mM sodium borohydride (fixed). Samples were subjected to cation exchange HPLC analyses, as described above. Modified […] (Hb adducts) was determined as a proportion of total Hb in each sample, and partitioning ratio was determined as the relative fraction of Hb modification of fixed samples compared to corresponding non-fixed samples. The partitioning ratio is the relative fraction of Hb that was modified intracellularly by molecules that permeated the RBC membrane, as compared to unfixed adducts which reflect Hb binding without RBC membrane permeation.
Target sequence in this assay (P69905 2-142 limits assumed): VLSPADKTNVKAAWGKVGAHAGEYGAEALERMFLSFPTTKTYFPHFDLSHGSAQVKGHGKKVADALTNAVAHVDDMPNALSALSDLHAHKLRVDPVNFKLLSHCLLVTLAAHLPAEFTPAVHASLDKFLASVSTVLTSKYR
Target sequence in this assay (P68871 2-147 partner limits assumed): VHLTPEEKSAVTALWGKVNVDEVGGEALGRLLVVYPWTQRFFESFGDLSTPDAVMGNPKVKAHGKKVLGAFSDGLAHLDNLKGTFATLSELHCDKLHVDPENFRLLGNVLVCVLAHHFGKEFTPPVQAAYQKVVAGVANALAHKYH

[3] = molecular target: T1, Hb; experiment: Hb modification (drug-adduct formation) in SS blood suspensions by cation-exchange HPLC; type: binding; parameters: Blood suspensions from subjects with homozygous SCD; from tissue; host or cells: blood suspensions (20% hematocrit) from donors with homozygous SCD; lysates of the treated red cells; conditions: 2 mM, 4 biological replicates
Experimental: All compounds (Comp 1-13) and comparator molecules (VZHE-039, PP-14, INN-310, and Voxelotor) were evaluated following established procedures. Blood samples from individual donors with homozygous SCD (obtained with informed consent) were diluted using Hemox buffer solution with the addition of glucose (10 mM) and BSA (0.2%) to adjust hematocrit of the blood suspensions to 20%, which standardizes the procedure to normalize the ratio of RBCs to drug, for assay consistency and reproducibility. Briefly, blood suspensions were incubated under room air in the presence of various concentrations of test compounds (0-2 mM) at 37° C. for 1 hour in 96-well round bottom plates. Subsequently, the suspensions were incubated with a hypoxic gas mixture (2.5% Oxygen gas/balance Nitrogen gas) at 37° C. for up to 2 hours prior to fixation with 2% glutaraldehyde solution without exposure to air. The fixated blood aliquots were evaluated by microscopic morphological analysis (image analysis on Image J software) to identify the proportion of sickled and non-sickled RBCs, and sickle inhibition calculated based on the % change from negative control (DMSO).
The residual samples were then washed in phosphate-buffered saline, and hemolyzed in hypotonic lysis buffer, with or without sodium borohydride (50 mM). Aliquots obtained from the lysates with or without sodium borohydride (to reduce Schiff base adducts) were also assessed for level of Hb modification (drug-adduct formation) by cation-exchange HPLC (Hitachi D-7000 Series, Hitachi Instruments, Inc., San Jose, CA) with a weak cation-exchange column (Poly CAT A: 50 mm×4.6 mm, Poly LC, Inc., Columbia, MD). Hemoglobin isotype peaks are eluted with a linear gradient of phase B from 0% to 80% at A410 nm (Mobile Phase A: 40 mM Bis-Tris, 2 mM KCN, pH 6.9; Phase B: 40 mM Bis-Tris, 2 mM KCN, 0.2 M sodium chloride, pH 6.55). Clarified lysate from normal human adult […] (Hb A), as well as commercial standards containing approximately equal amounts of Hb F, A, S and C (Helena Laboratories, Beaumont, TX), were utilized as reference isotypes. Reduced samples were used to assess “fixed adduct” formation (dependent on RBC membrane permeability), whereas non-reduced samples assessed drug-adduct formation independent of drug permeability.
Target sequence in this assay (P69905 2-142): as the sequence (P69905 2-142 limits assumed) above
Target sequence in this assay (P68871 with tags, fused parts or gaps E7V partner): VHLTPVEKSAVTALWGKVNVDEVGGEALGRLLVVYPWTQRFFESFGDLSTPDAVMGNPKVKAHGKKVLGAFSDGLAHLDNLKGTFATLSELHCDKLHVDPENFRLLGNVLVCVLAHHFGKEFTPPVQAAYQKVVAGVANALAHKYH

[4] = Single-dose oral pharmacokinetics in rats; type: in vivo, Sprague Dawley rats; conditions: Sprague Dawley, rat; single oral dose 100 mg/kg, male rats, whole blood
Experimental: Single doses of each compound were administered as oral suspensions by gavage in 0.5% carboxy methylcellulose at 100 mg/kg. Whole blood levels were collected for at least 72 hours after dose administration. Bioanalyses were performed with liquid chromatography-tandem mass spectrometry […].
Single-dose pharmacokinetics (PK) in male Sprague Dawley (SD) rats (n=4) were assessed for each compound, and the maximum or peak whole blood concentration and area under the curve are shown in Table 5.

[5] = molecular target: T1, Hb; experiment: Oxygen equilibrium curve (OEC) studies with normal whole blood; type: cell-based; parameters: Hemoglobin modification, studies using non-sickling AA blood; from tissue; host or cells: non-sickling (AA) human blood, red blood cells; conditions: normal whole blood, 0.5, 1, 2 mM
Experimental: Oxygen equilibrium curve (OEC) studies to determine the effect of the compounds on Hb affinity for oxygen were conducted following standard procedure. Whole blood (30% hematocrit) was incubated in the absence or presence of compounds (0.5 mM, 1.0 mM and 2.0 mM) solubilized in DMSO. […] After equilibration, the sample was removed via syringe and aspirated into an ABL 700 series table top automated blood gas analyzer (Radiometer America, Inc., Westlake, OH) to determine total hemoglobin (tHb), hematocrit (Hct), pH, pCO2, partial pressure of oxygen (pO2), and the Hb-O2 saturation (sO2) values. The measured values of pO2 and sO2 at each oxygen saturation level were then subjected to nonlinear regression analysis using the software Scientist (Micromath, Salt Lake City UT) with the following equation: […]
Aromatic aldehydes are known to prevent hypoxia-induced Hb S polymerization by increasing the Hb affinity for oxygen. We therefore tested the PP compounds in a dose-dependent manner (0.5, 1, 2 mM) for their effect on Hb oxygen binding property. […] These findings confirmed that the potent in vitro activity previously seen in TD7 was at least conserved in the novel PP compounds.
Target sequence in this assay (P69905 2-142 limits assumed): as the sequence (P69905 2-142 limits assumed) above
Target sequence in this assay (P68871 2-147 partner limits assumed): as the sequence (P68871 2-147 partner limits assumed) above

[6] = test system: sickle red blood cells; experiment: Antisickling study with human sickle blood under 2.5% oxygen; type: cell-based; conditions: 0.5, 1 and 2 mM, sickle RBCs
Experimental: Blood suspensions from subjects with homozygous SCD (resuspended in Hemox™ buffer to a final hematocrit 20%) were incubated under air in the absence or presence of the compounds (0.5 mM, 1 mM and 2 mM) at 37° C. for 1 h to ensure that binding had attained equilibrium. The suspensions were then incubated under hypoxic conditions (2.5% oxygen/97.5% nitrogen) at 37° C. for 1 h. Aliquot samples were fixed with 2% glutaraldehyde solution without exposure to air, and then subjected to microscopic morphological analysis of bright field images (at 40× magnification) of single layer cells on an Olympus BX40 microscope fitted with an Infinity Lite B camera (Olympus), and the coupled Image Capture software. The residual samples were washed in phosphate-buffer saline, and hemolyzed in hypotonic lysis buffer for subsequent Hb-modification and oxygen equilibrium analyses.
The studies described above were conducted using normal whole blood. Next, we investigated whether the improvement in Hb oxygen affinity and the compounds sustained activity also translated to similar effects in SS blood from SCD patients. […] At 1 mM, PP8 and PP9 inhibited nearly 100% of sickling, while PP2, PP6, PP14 inhibited sickling by more than 70%. […] It is clear that the modifications of the present compounds has led to significant improvement in antisickling activity.

[7] = molecular target: T2, intracellular Hb (Mus musculus, UniProt P01942); experiment: In vivo modification of intracellular Hb in wild-type mice; parameters: species or system C57BL/6 mice; conditions: IP 150 mg/kg, 30% PEG300, 6 h
T2 construct: from tissue; host or cells: blood (red cell lysates) of dosed C57BL/6 mice
T2 sequence (P01942 2-142 limits assumed): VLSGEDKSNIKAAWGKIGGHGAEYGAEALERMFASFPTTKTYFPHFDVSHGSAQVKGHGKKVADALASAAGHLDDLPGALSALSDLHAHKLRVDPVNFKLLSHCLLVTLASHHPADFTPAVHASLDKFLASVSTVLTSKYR
T2 sequence (P02088 2-147 partner limits assumed): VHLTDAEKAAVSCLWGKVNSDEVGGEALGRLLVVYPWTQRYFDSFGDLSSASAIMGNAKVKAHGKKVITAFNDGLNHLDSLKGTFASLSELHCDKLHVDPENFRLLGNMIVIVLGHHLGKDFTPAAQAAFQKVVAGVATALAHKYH
Experimental: We tested in vivo pharmacologic (pharmacodynamics) effects of select PP compounds in C57BL/6 mice. The animals were treated with a single intraperitoneal (IP) (150 mg/kg body weight) dose of PP6, PP10, PP14, and TD7, which were formulated with 30% PEG300. Blood samples were obtained prior to treatment (0) and 1, 3 and 6 h post-treatment, via submandibular bleeding, and subjected to hemolysis using standard methods. Clarified lysates, free of cell debris and red blood cell ghosts were analyzed by cation-exchange HPLC to determine the levels of drug-modified hemoglobin (adducts); and to conduct oxygen equilibrium studies to determine degrees of shift in p50 values using methodologies described earlier for in vitro studies on human samples. In a subsequent follow-up experiment, a new excipient obtained from Catalent Pharma Solutions was also used to formulate PP14 and used for a single intraperitoneal (IP) and oral (150 mg/kg body weight) dose. Blood samples were obtained prior to treatment (0) and 1, 3 or 5 h post-treatment, via submandibular bleeding, and used to determine the levels of drug-modified hemoglobin (adducts); and to conduct oxygen equilibrium studies to determine degrees of shift in p50 values as described above.

Structure (SMILES): O=Cc1c(OCc2cccnc2)ccc(F)c1O [Comp 12, 3-fluoro-2-hydroxy-6-(pyridin-3-ylmethoxy)benzaldehyde]
- polymer destabilizing effect / sickle inhibition in anoxia (in words) [1]: significantly reduced the potency of polymer inhibition
- Fixed Adducts (%) [2]: 80.4 ± 9.1%
- Unfixed Adduct (%) [2]: 80.8 ± 5.9%
- Partitioning Ratio (%) [2]: 99.4 ± 4.2%
- Hb Modification (%) [3]: 99.8 ± 0.4%

Structure (SMILES): O=Cc1c(O)cccc1OCc1ncccn1 [Comp 11, 2-hydroxy-6-(pyrimidin-2-ylmethoxy)benzaldehyde]
- Fixed Adducts (%) [2]: 88.2 ± 2.1%
- Unfixed Adduct (%) [2]: 87.7 ± 4.3%
- Partitioning Ratio (%) [2]: 100.7 ± 3.0%
- Hb Modification (%) [3]: 98.1 ± 3.2%

Structure (SMILES): O=Cc1c(O)cccc1OCc1cncnc1 [Comp 10, 2-hydroxy-6-(pyrimidin-5-ylmethoxy)benzaldehyde]
- Fixed Adducts (%) [2]: 94.8 ± 2.8%
- Unfixed Adduct (%) [2]: 96.3 ± 3.0%
- Partitioning Ratio (%) [2]: 98.5 ± 2.7%
- AUC(0-inf) [4]: 693000 ng·h/mL and 3010 µM·h
- Cmax [4]: 36200 ng/mL and 157 µM
- half-life [4]: 4.7 h
- Hb Modification (%) [3]: 100.0 ± 0.0%

Structure (SMILES): COc1cc(C=O)ccc1O [vanillin, reference compound]
- sickling inhibition (in words) [6]: minimal sickling inhibition
- effect on Hb oxygen binding property (OEC) [5]: very weak functional effect

Structure (SMILES): O=Cc1c(O)cccc1OCc1ccncc1 [Comp 3, 2-hydroxy-6-(pyridin-4-ylmethoxy)benzaldehyde]
- Fixed Adducts (%) [2]: 60.1 ± 3.0%
- Unfixed Adduct (%) [2]: 60.0 ± 3.3%
- Partitioning Ratio (%) [2]: 100.1 ± 0.9%
- Hb Modification (%) [3]: 74.4 ± 10.6%

Structure (SMILES): O=Cc1c(O)cccc1OCc1ncccc1Cl [Comp 8, 2-((3-chloropyridin-2-yl)methoxy)-6-hydroxybenzaldehyde]
- Fixed Adducts (%) [2]: 85.6 ± 2.5%
- Unfixed Adduct (%) [2]: 84.8 ± 7.5%
- Partitioning Ratio (%) [2]: 101.3 ± 6.3%
- AUC(0-inf) [4]: 269000 ng·h/mL and 1020 µM·h
- Cmax [4]: 20000 ng/mL and 76 µM
- half-life [4]: 9.5 h
- Hb Modification (%) [3]: 100.0 ± 0.0%

Structure (SMILES): O=Cc1c(O)cccc1OCc1cccnc1Cl [Comp 7, 2-((2-chloropyridin-3-yl)methoxy)-6-hydroxybenzaldehyde]
- Fixed Adducts (%) [2]: 59.6 ± 5.7%
- Unfixed Adduct (%) [2]: 60.2 ± 5.7%
- Partitioning Ratio (%) [2]: 99.0 ± 3.1%
- Hb Modification (%) [3]: 73.91 ± 9.8%

Structure (SMILES): O=Cc1c(O)cccc1OCc1cncc(F)c1 [Comp 4, 2-((5-fluoropyridin-3-yl)methoxy)-6-hydroxybenzaldehyde]
- Fixed Adducts (%) [2]: 85.9 ± 7.1%
- Unfixed Adduct (%) [2]: 88.8 ± 6.2%
- Partitioning Ratio (%) [2]: 96.9 ± 5.73%
- AUC(0-inf) [4]: 831000 ng·h/mL and 3360 µM·h
- Cmax [4]: 59800 ng/mL and 242 µM
- half-life [4]: 5.9 h
- Hb Modification (%) [3]: 92.9 ± 9.8%

Structure (SMILES): O=Cc1c(O)cccc1OCc1cccnc1F [Comp 6, 2-((2-fluoropyridin-3-yl)methoxy)-6-hydroxybenzaldehyde]
- Fixed Adducts (%) [2]: 67.3 ± 12.1%
- Unfixed Adduct (%) [2]: 67.1 ± 10.3%
- Partitioning Ratio (%) [2]: 100.0 ± 2.8%
- AUC(0-inf) [4]: 180000 ng·h/mL and 728 µM·h
- Cmax [4]: 12100 ng/mL and 49 µM
- half-life [4]: 8.2 h
- Hb Modification (%) [3]: 73.8 ± 15.4%

Other lines, results leading:

- effect on Hb oxygen binding property (OEC) [5]: minimal effect
Structure (SMILES): COC(=O)c1ccnc(COc2ccc(OC)cc2C=O)c1 [PP4]

- modified Hb [7]: 9.6±1.9%
Structure (SMILES): COC(=O)c1cccc(COc2cccc(O)c2C=O)n1 [PP10, Methyl 6-((2-formyl-3-hydroxyphenoxy)methyl)picolinate]

- effect on Hb oxygen binding property (OEC) [5]: most significant activities
Structure (SMILES): COC(=O)c1ccnc(COc2cccc(O)c2C=O)c1 [PP7, Methyl 2-((2-formyl-3-hydroxyphenoxy)methyl)isonicotinate]

- effect on Hb oxygen binding property (OEC) [5]: most significant activities
Structure (SMILES): COC(=O)c1cncc(COc2ccc(OC)cc2C=O)c1 [PP12, Methyl 5-((2-formyl-4-methoxyphenoxy)methyl)nicotinate]

- effect on Hb oxygen binding property (OEC) [5]: minimal effect
Structure (SMILES): COC(=O)c1ccc(COc2ccc(OC)cc2C=O)nc1 [PP1, Methyl 6-((2-formyl-4-methoxyphenoxy)methyl)nicotinate]
